Assay results published in US10005767B2, “Compositions and methods for inhibition of the JAK pathway” (Rigel Pharmaceuticals, Inc., priority 2009, dated 2018).

Test system: human primary T-cells, IL-2 stimulated proliferation (JAK-1 and JAK-3 dependent; reported as JAK3 activity)
Experiment: Human primary T-cell proliferation stimulated by IL-2 (Example 3)
Assay type: cell-based
Details: Homo sapiens, T-cell, tested under conditions described in Example 3 (IL-2 stimulated human primary T-cell proliferation); read-out: ability to inhibit JAK3 activity, IC50 range (Table V)
Method in brief: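 Peripheral-blood human T-cells pre-activated via TCR/CD28, IL-2-starved overnight, then cultured 72 h at 37 °C with compound in Yssel's medium containing IL-2 (80 U/mL in cell suspension). Proliferation read as viable-cell ATP by CellTiter-Glo luminescence; reduction versus control taken as JAK pathway inhibition.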

SMILES	IC50 [nM]
Cc1cnc(Nc2cc(OCC3CCC3)cc(C(F)(F)F)c2)nc1Nc1ccc2oc(=O)[nH]c2c1 [Compound I-227, 5-(2-(3-(cyclobutylmethoxy)-5-(trifluoromethyl)phenylamino)-5-methylpyrimidin-4-ylamino)benzo[d]oxazol-2(3H)-one]	500 to 5000
Cc1cnc(Nc2ccc3c(c2)CN(C)C3)nc1Nc1ccc2oc(=O)[nH]c2c1 [III-4, N4-(benzo[d]oxazol-2(3H)-on-5-yl)-N2-(2-methylisoindolin-5-yl)-5-methylpyrimidine-2,4-diamine]	< 500
Cc1cnc(Nc2ccc(Br)c(C(F)(F)F)c2)nc1Nc1ccc2oc(=O)[nH]c2c1 [Compound I-188, 5-[2-(4-Bromo-3-trifluoromethyl-phenylamino)-5-methyl-pyrimidin-4-ylamino]-3H-benzooxazol-2-one]	< 500
COc1ccnc(Nc2ncc(C)c(Nc3ccc4oc(=O)[nH]c4c3)n2)c1 [IV-58, N2-(4-methoxypyridin-2-yl)-5-methyl-N4-(2-oxo-2,3-dihydro-1,3-benzoxazol-5-yl)-2,4-pyrimidinediamine]	> 10000
Cc1cnc(Nc2ccc(C(=O)N3CCOCC3)cc2)nc1Nc1ccc2oc(=O)[nH]c2c1 [Compound I-257, 5-(5-methyl-2-(4-(morpholine-4-carbonyl)phenylamino)pyrimidin-4-ylamino)benzo[d]oxazol-2(3H)-one]	< 500
Cc1cnc(Nc2cnc(N3CC4CN(C(=O)C5CC5)CC4C3)c(F)c2)nc1Nc1ccc2oc(=O)[nH]c2c1 (stereo not shown) [II-53, 5-{2-[6-(5-Cyclopropanecarbonyl-hexahydro-pyrrolo[3,4-c]pyrrol-2-yl)-5-fluoro-pyridin-3-ylamino]-5-methyl-pyrimidin-4-ylamino}-3H-benzooxazol-2-one]	< 500
Cc1cnc(Nc2ccc(C(=O)O)cc2)nc1Nc1ccc2oc(=O)[nH]c2c1 [Compound I-126, 4-[5-Methyl-4-(2-oxo-2,3-dihydro-benzooxazol-5-ylamino)-pyrimidin-2-ylamino]-benzoic acid]	< 500
COc1cncc(Nc2ncc(C)c(Nc3ccc4oc(=O)[nH]c4c3)n2)c1 [II-152, N2-(5-methoxypyridin-3-yl)-5-methyl-N4-(2-oxo-2,3-dihydro-1,3-benzoxazol-5-yl)-2,4-pyrimidinediamine]	> 10000
CCN1CCN(c2ncc(Nc3ncc(C)c(Nc4ccc5oc(=O)[nH]c5c4)n3)cc2C(F)(F)F)CC1 [II-110, N4-(benzo[d]oxazolin-2(3H)-one-5-yl)-N2-[2-(4-ethylpiperazin-1-yl)-3-trifluoromethylpyridine-5-yl]-5-methyl-2,4-pyrimidinediamine]	< 500
COc1cc(Nc2ncc(C)c(Nc3cc(F)c4oc(=O)[nH]c4c3)n2)cc(C)c1OC [Compound I-454, 5-(2-(3,4-dimethoxy-5-methylphenylamino)-5-methylpyrimidin-4-ylamino)-7-fluorobenzo[d]oxazol-2(3H)-one]	< 500
Cc1cnc(Nc2ccc3c(c2)OC(C)(C)C(=O)N3)nc1Nc1ccc2oc(=O)[nH]c2c1 [IV-50, N2-[2,2-dimethyl-2H-1,4-benzoxazin-3(4H)-one-7-yl]-5-methyl-N4-(2-oxo-2,3-dihydro-1,3-benzoxazol-5-yl)-2,4-pyrimidinediamine]	< 500
Cc1cnc(Nc2ccc(NS(C)(=O)=O)nc2)nc1Nc1ccc2oc(=O)n(C)c2c1 [II-79, N-(5-(5-methyl-4-(3-methyl-2-oxo-2,3-dihydrobenzo[d]oxazol-5-ylamino)pyrimidin-2-ylamino)pyridin-2-yl)methanesulfonamide]	< 500
Cc1cnc(Nc2cnc(N3C[C@@H]4C[C@H]3CN4C)c(C(F)(F)F)c2)nc1Nc1ccc2oc(=O)[nH]c2c1 [II-109, N4-(benzo[d]oxazolin-2(3H)-one-5-yl)-5-methyl-N2-[2-((1S,4S)-5-methyl-2,5-diazabicyclo[2.2.1]heptan-2-yl)-3-trifluoromethylpyridine-5-yl]-2,4-pyrimidinediamine]	< 500
Cc1cc(N2CCN(C)CC2)ncc1Nc1ncc(C)c(Nc2ccc3oc(=O)[nH]c3c2)n1 [II-143, N2-[4-methyl-2-(4-methylpiperazino)pyridin-5-yl]-5-methyl-N4-(2-oxo-2,3-dihydro-1,3-benzoxazol-5-yl)-2,4-pyrimidinediamine]	500 to 5000
Cc1cnc(Nc2cnc3c(c2)c(C)nn3C)nc1Nc1ccc2oc(=O)[nH]c2c1 [IV-40, N2-(1,3-dimethyl-1H-pyrazolo[3,4-b]pyridin-5-yl)-5-methyl-N4-(2-oxo-2,3-dihydro-1,3-benzoxazol-5-yl)-2,4-pyrimidinediamine]	< 500
Cc1cnc(Nc2ccc(N3C[C@@H](C)N(C)C[C@@H]3C)nc2)nc1Nc1ccc2oc(=O)[nH]c2c1 (relative stereo) [II-129, 5-methyl-N4-(2-oxo-2,3-dihydro-1,3-benzoxazol-5-yl)-N2-[2-(trans-2,4,5-trimethylpiperazino)pyridin-5-yl]-2,4-pyrimidinediamine]	< 500
Cc1cnc(Nc2ccc3c(c2)OC(C)(C)O3)nc1Nc1ccc2oc(=O)[nH]c2c1 [IV-17, 5-[2-(2,2-Dimethyl-benzo[1,3]dioxol-5-ylamino)-5-methyl-pyrimidin-4-ylamino]-3H-benzooxazol-2-one]	< 500

Same assay, conditions: tested under conditions described in Example 3 (IL-2 stimulated human primary T-cell proliferation); read-out: ability to inhibit JAK3 activity, IC50 range (Table V)

SMILES	IC50 [nM]
Cc1cc(Nc2ncc(C)c(Nc3ccc4oc(=O)[nH]c4c3)n2)cc(OC(F)(F)F)c1 [Compound I-379, 5-methyl-N2-(3-methyl-5-trifluoromethoxy)phenyl-N4-(2-oxo-2,3-dihydro-1,3-benzoxazol-5-yl)-2,4-pyrimidinediamine]	< 500
Cc1cnc(Nc2cc(C(N)=O)cc(C(F)(F)F)c2)nc1Nc1ccc2oc(=O)[nH]c2c1 [Compound I-370, N2-(3-carboxamide-5-trifluoromethyl)phenyl-5-methyl-N4-(2-oxo-2,3-dihydro-1,3-benzoxazol-5-yl)-2,4-pyrimidinediamine]	< 500
Cc1cnc(Nc2ccc(N3CCOCC3)c(C#N)c2)nc1Nc1ccc2oc(=O)[nH]c2c1 [Compound I-327, N2-(3-cyano-4-morpholino)phenyl-5-methyl-N4-(2-oxo-2,3-dihydro-1,3-benzoxazol-5-yl)-2,4-pyrimidinediamine]	< 500
COc1cc(Nc2ncc(C)c(Nc3ccc4oc(=O)n(COP(=O)(OC(C)(C)C)OC(C)(C)C)c4c3)n2)cc(C(F)(F)F)c1 [Compound I-356, N4-{3-[bis(1,1-dimethylethoxy)]phosphinyloxymethyl-2-oxo-2,3-dihydro-1,3-benzoxazol-5-yl}-N2-(3-methoxy-5-trifluoromethyl)phenyl-5-methyl-2,4-pyrimidinediamine]	5000 to 10000
COCCOc1cc(Nc2ncc(C)c(Nc3ccc4oc(=O)[nH]c4c3)n2)ccc1OC [Compound I-292, N2-[4-methoxy-3-(2-methoxyethoxy)]phenyl-5-methyl-N4-(2-oxo-2,3-dihydro-1,3-benzoxazol-5-yl)-2,4-pyrimidinediamine]	< 500
Cn1c(=O)oc2cc(Nc3nc(Nc4ccc(NS(C)(=O)=O)cc4)ncc3F)ccc21 [Compound I-62, N2-((4-methylsulfonylamino)phenyl)-N4-(3-methyl-2-oxo-2,3-dihydrobenzo[d]oxazol-6-yl)-5-fluoropyrimidine-2,4-diamine]	500 to 5000
Cn1c(=O)oc2ccc(Nc3nc(Nc4ccc(NS(C)(=O)=O)cc4)ncc3F)cc21 [Compound I-80, N2-((4-methylsulfonylamino)phenyl)-N4-(3-methyl-2-oxo-2,3-dihydrobenzo[d]oxazol-5-yl)-5-fluoropyrimidine-2,4-diamine]	< 500
Cc1cnc(Nc2cc(C)c(C)c(C)c2)nc1Nc1cc(Cl)c2oc(=O)n(COP(=O)(OC(C)(C)C)OC(C)(C)C)c2c1 [Compound I-524, N4-{3-[bis(1,1-dimethylethoxy)]phosphinyloxymethyl-7-chloro-2-oxo-2,3-dihydro-1,3-benzoxazol-5-yl}-N2-(3,4,5-trimethyl)phenyl-5-methyl-2,4-pyrimidinediamine]	> 10000
Cc1cnc(Nc2ccc(N3CCC(F)(F)CC3)cc2)nc1Nc1ccc2oc(=O)[nH]c2c1 [Compound I-279, N2-[4-(4,4-difluoropiperidinyl)]phenyl-5-methyl-N4-(2-oxo-2,3-dihydro-1,3-benzoxazol-5-yl)-2,4-pyrimidinediamine]	< 500
Cn1c(=O)oc2cc(Nc3nc(Nc4cccc(NS(C)(=O)=O)c4)ncc3F)ccc21 [Compound I-61, N2-((3-methylsulfonylamino)phenyl)-N4-(3-methyl-2-oxo-2,3-dihydrobenzo[d]oxazol-6-yl)-5-fluoropyrimidine-2,4-diamine]	< 500
Cc1cnc(Nc2ccc(N(C)S(C)(=O)=O)cc2)nc1Nc1ccc2oc(=O)[nH]c2c1 [Compound I-93, N2-((4-methylsulfonyl-N-methylamino)phenyl)-N4-(2-oxo-2,3-dihydrobenzo[d]oxazol-5-yl)-5-methylpyrimidine-2,4-diamine]	< 500
Cn1c(=O)oc2ccc(Nc3nc(Nc4ccc(S(C)(=O)=O)cc4)ncc3F)cc21 [Compound I-78, N2-((4-methylsulfonyl)phenyl)-N4-(3-methyl-2-oxo-2,3-dihydrobenzo[d]oxazol-5-yl)-5-fluoropyrimidine-2,4-diamine]	500 to 5000
Cc1cnc(Nc2ccc(N3CCNCC3)cc2)nc1Nc1ccc2oc(=O)[nH]c2c1 [Compound I-332, 5-methyl-N4-(2-oxo-2,3-dihydro-1,3-benzoxazol-5-yl)-N2-(4-piperazino)phenyl-2,4-pyrimidinediamine]	< 500
Cc1cnc(Nc2ccc(N3CCN(C)CC3)nc2)nc1Nc1ccc2[nH]c(=O)[nH]c2c1 [II-15, N4-(benzimidazolin-2-on-5-yl)-N2-[2-(4-methylpiperazin-1-yl)pyridin-5-yl]-5-methylpyrimidine-2,4-diamine]	< 500
